pIC50: −log10 of the molar value.
System: KRAS patient-derived spheroids with HUVEC/MSC, viability
Experiment: Anticancer human tumor 323965-272-R-J2-PDC patient-derived pancreatic carcinoma cell line growth inhibition [KRAS2]
Conditions: for pIC50: curve of first compound; for viability, T/C: stronger effect = lower value
In short: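 KRAS-mutant tumor cells were grown as spheroids with HUVEC endothelial cells and human MSCs as stroma. Targeted agents were tested alone and with KRAS pathway inhibitors. Doses started at or near clinical Cmax, or 10 microM, descending half-log.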

[1] = second compound 0.1 µM, first compound 0.01 µM
[2] = second compound 0.1 µM, first compound 0.0316 µM
[3] = second compound 0.1 µM, first compound 0.1 µM
[4] = second compound 0.316 µM, first compound 0.01 µM
[5] = second compound 0.316 µM, first compound 0.0316 µM
[6] = second compound 0.316 µM, first compound 0.1 µM
[7] = second compound 1 µM, first compound 0.01 µM
[8] = second compound 1 µM, first compound 0.0316 µM
[9] = second compound 1 µM, first compound 0.1 µM
[10] = second compound 3.16 µM, first compound 0.01 µM
[11] = second compound 3.16 µM, first compound 0.0316 µM
[12] = second compound 3.16 µM, first compound 0.1 µM
[13] = second compound 10 µM, first compound 0.01 µM
[14] = second compound 10 µM, first compound 0.0316 µM
[15] = second compound 10 µM, first compound 0.1 µM
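Further: spheroids exposed to agents for 7 days.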
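Wherever viability, T/C is given: 100% = DMSO vehicle control viability.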

Row | Compound | pIC50 (second compound 0.1 µM) | pIC50 (second compound 0.316 µM) | pIC50 (second compound 1 µM) | pIC50 (second compound 3.16 µM) | pIC50 (second compound 10 µM) | viability, T/C [1] [%] | viability, T/C [2] [%] | viability, T/C [3] [%] | viability, T/C [4] [%] | viability, T/C [5] [%] | viability, T/C [6] [%] | viability, T/C [7] [%] | viability, T/C [8] [%] | viability, T/C [9] [%] | viability, T/C [10] [%] | viability, T/C [11] [%] | viability, T/C [12] [%] | viability, T/C [13] [%] | viability, T/C [14] [%] | viability, T/C [15] [%] | other results
1 | CN(C)C/C=C/C(=O)Nc1cc2c(Nc3ccc(F)c(Cl)c3)ncnc2cc1O[C@H]1CCOC1 + CNCc1ccccc1-c1csc(C(C)Nc2nc(C)nc3cc(OC)c(OC)cc23)c1 | < 7.00 | < 7.00 | < 7.00 | < 7.00 | > 9.50 | 70.6 | 59.6 | 62.7 | 64.2 | 59.2 | 57.8 | 60.6 | 63.3 | 65.1 | 79.6 | 47.2 | 71.9 | 0.21 | 0.2 | 0.78 | viability, T/C (second compound 0.1 µM, first compound 0.000316 µM): 91.6%; viability, T/C (second compound 0.1 µM, first compound 0.001 µM): 80.5%; viability, T/C (second compound 0.1 µM, first compound 0.00316 µM): 94.3%; viability, T/C (second compound 0.316 µM, first compound 0.000316 µM): 83.8%; viability, T/C (second compound 0.316 µM, first compound 0.001 µM): 82.1%; viability, T/C (second compound 0.316 µM, first compound 0.00316 µM): 74.3%; viability, T/C (second compound 1 µM, first compound 0.000316 µM): 82.3%; viability, T/C (second compound 1 µM, first compound 0.001 µM): 81.4%; viability, T/C (second compound 1 µM, first compound 0.00316 µM): 75.2%; viability, T/C (second compound 3.16 µM, first compound 0.000316 µM): 73.8%; viability, T/C (second compound 3.16 µM, first compound 0.001 µM): 63.7%; viability, T/C (second compound 3.16 µM, first compound 0.00316 µM): 79.1%; viability, T/C (second compound 10 µM, first compound 0.000316 µM): 0.21%; viability, T/C (second compound 10 µM, first compound 0.001 µM): 0.21%; viability, T/C (second compound 10 µM, first compound 0.00316 µM): 1.04%
2 | CC1COCCN1c1cc(-c2ccnn2C)c2ccnc(-c3ccn[nH]3)c2n1 (stereo not given) + CC1OCC2(CCN(c3cnc(Sc4ccnc(N)c4Cl)c(N)n3)CC2)C1N | 7.82 | > 8.00 | > 8.00 | > 8.00 | > 8.00 | 60.7 | 32.2 | 17.7 | 43.1 | 23.2 | 12.3 | 35.1 | 13 | 7.36 | 13.3 | 7.07 | 4.72 | 7.99 | 5.12 | 4.05 | viability, T/C (second compound 0.1 µM, first compound 0.316 µM): 15%; viability, T/C (second compound 0.1 µM, first compound 1 µM): 13.5%; viability, T/C (second compound 0.1 µM, first compound 3.16 µM): 12.9%; viability, T/C (second compound 0.316 µM, first compound 0.316 µM): 10.7%; viability, T/C (second compound 0.316 µM, first compound 1 µM): 10.5%; viability, T/C (second compound 0.316 µM, first compound 3.16 µM): 9.88%; viability, T/C (second compound 1 µM, first compound 0.316 µM): 6.29%; viability, T/C (second compound 1 µM, first compound 1 µM): 5.53%; viability, T/C (second compound 1 µM, first compound 3.16 µM): 3.23%; viability, T/C (second compound 3.16 µM, first compound 0.316 µM): 4.25%; viability, T/C (second compound 3.16 µM, first compound 1 µM): 2.21%; viability, T/C (second compound 3.16 µM, first compound 3.16 µM): 2.21%; viability, T/C (second compound 10 µM, first compound 0.316 µM): 3.27%; viability, T/C (second compound 10 µM, first compound 1 µM): 1.9%; viability, T/C (second compound 10 µM, first compound 3.16 µM): 1.31%
